Two molecules from publication PMC11356571, “The Comparative Metabolism of a Novel Hepatocellular Carcinoma Therapeutic Agent, 2,3-Diamino-N-(4-(benzo[d]thiazol-2-yl)phenyl)propanamide, in Human and Animal Hepatocytes” (Metabolites, 2024) can be followed below.

One may read the half-life as how long it takes for the measured level to halve. A lower half-life goes with fast loss. Broadly, the hepatocyte CLint is a measure of how fast metabolising enzymes remove a compound, apart from limits set by blood flow. The low end stands for slow turnover, the high end for rapid turnover. One may read the CLint scaled as the capacity of the preparation to metabolise the compound, expressed as a volume cleared per time. Higher therefore signals rapid turnover.

Holding throughout (assay type): in vitro ADME
Series [1] relates to NAT1 in human liver cytosol. As to the kind of experiment: Human liver cytosol incubation with NAT1 inhibitor caffeic acid. The conditions noted are these: 30 min at 37 °C, M1 1 μM. How it is done: For the chemical inhibition assay, human liver cytosol was prepared in 0.05 M potassium phosphate buffer at a concentration of 1 mg/mL prior to use. A 1 μL of M1 (final concentration: 1 μM) solution was spiked in 223 μL of human liver cytosol preparations. One microliter each of caffeic acid and 1-aminobenzotriazole were added and incubated as NAT1 and NAT2 inhibitors, respectively. The final concentrations of the NAT inhibitors were 0, 100, and 1000 μM in each incubate. After 5 min of pre-warming of the incubates at 37 °C, the metabolic reaction was initiated by adding 25 μL of acetyl-CoA regenerating system to the incubates. The samples were incubated in triplicate for 0 min or 30 min at 37 °C. The reaction was stopped by adding 250 μL of ice-cold acetonitrile containing the IS (camptothecin, 500 ng/mL) and vortex-mixing. Following centrifugation at 13,000 rpm for 5 min at 4 °C, a 2 μL aliquot of the supernatant was injected into the LC-MS/MS system. The percentage of remaining M1 and the formation of M2 were evaluated to determine the involvement of the NAT isozyme in N-acetylation of M1.
For enzyme characterization, an Agilent 6460 triple quadrupole mass spectrometer coupled with a 1260 HPLC system (Agilent Technologies, Santa Clara, CA, USA) and a Kinetex Halo® C18 column (2.7 μm, 2.1 × 50 mm, Advanced Material Technology, Wilmington, DE, USA) were used for chromatographic separation. The mobile phases comprised 0.1% (v/v) formic acid in water (mobile phase A) and 0.1% formic acid (v/v) in acetonitrile (mobile phase B). The mobile phase flowed at a rate of 0.3 mL/min, and the gradient elution program proceeded as follows: starting with 10% B for 0.5 min, a linear increase to 90% B for 0.2 min, maintaining 90% B for 1.5 min, and then returning to initial conditions for 0.2 min. Subsequently, the column was reconditioned using 10% B for 2.6 min. The column and auto-sampler were maintained at 40 °C and 4 °C, respectively. ETN101, M1, and M2 were detected via MRM using ESI in the positive mode. […]

The nature of series [2]: Metabolic stability in human hepatocytes. The conditions noted are these: cryopreserved hepatocytes. How it is done: (§1) Cryopreserved hepatocytes were carefully thawed in a 37 °C water bath for approximately 1 min, and transferred to a tube containing pre-warmed thawing medium. The supernatants were removed and the pellets were resuspended in KHB at a final cell density of 1 × 10^6 cells/mL, based on hemocytometer counting using trypan blue exclusion. A ETN101 solution was prepared by dissolving ETN101 in water at 4 mM and diluted by KHB at the concentration of 4 μM of ETN101. Sixty microliters each of hepatocyte suspensions and 4 μM of ETN101 were added in a 96-well plate and incubated for 0, 5, 15, 30, and 45 min at 37 °C in a CO2 incubator. All incubations were conducted in triplicates. Reactions were terminated by the addition of 120 μL of ice-cold acetonitrile and followed by vortex mixing. After centrifugation at 13,000 rpm for 8 min at 4 °C, 5 μL of internal standard (IS, camptothecin in acetonitrile at 780 ng/mL) was added to 60 μL of supernatant. A 2 μL aliquot was injected into the LC-MS/MS system. The reliability of the analysis was confirmed by incorporating three different levels of quality control samples at the beginning and end of each analytical batch. The disappearance rate (k) of ETN101 was calculated by determined peak area ratio of ETN101 to IS over incubation period. Subsequently, half-life (t1/2), intrinsic clearance (Clint), and intrinsic hepatic clearance (Clint,hep) of ETN101 in human and animal hepatocytes were calculated using the following equation [34]: t1/2(min)=ln2/−k(elimination slope) ClintμL/min/10^6 cells=ln2/t1/2×μL incubation/hepatocytes (10^6 cells) Clint,hepmL/min/kg=Clint/1000×A×10^6 cells/g liver×B g liver/kg body weight […]
(§2) For the metabolic stability assay, an LC-MS/MS system was employed, consisting of an Agilent 1260 series HPLC system (Agilent Technologies Inc., Santa Clara, CA, USA) coupled to an API 4000 mass spectrometer (AB SCIEX, Concord, Vaughan, ON, Canada) equipped with a turbo electrospray interface. […] ETN101 and IS were detected using multiple reaction monitoring (MRM) mode under positive electrospray ionization (ESI). […]

Series [3] is described as follows: Metabolic stability in rat hepatocytes. The conditions noted are these: cryopreserved hepatocytes. How it is done:
as §1, §2

On to `Nc1ccc(-c2nc3ccccc3s2)cc1` [M1, 2-(4-aminophenyl)benzothiazole], for which the results for the “Percentage remaining of M1” value in series [1] (caffeic acid 0 μM), in series [1] (caffeic acid 100 μM) and in series [1] (caffeic acid 1000 μM) were 87.2%, 89.6% and 94.4%, respectively.
Consider `NCC(N)C(=O)Nc1ccc(-c2nc3ccccc3s2)cc1` (stereo not drawn) [ETN101, 2,3-diamino-N-(4-(benzo[d]thiazol-2-yl)phenyl)propanamide], for which the half-life at 2 µM is 75 min in series [2] (45 min incubation at 37 °C) and 68.9 min in series [3] (45 min incubation at 37 °C). The figures for the intrinsic clearance (hepatocyte CLint) at 2 µM in series [2] (45 min incubation at 37 °C) and in series [3] (45 min incubation at 37 °C) were 18.5 µL/min/1e6 cells and 20.1 µL/min/1e6 cells, respectively. Also, the results for the intrinsic metabolic clearance (CLint scaled) at 2 µM in series [2] (scaled from Clint) and in series [3] (scaled from Clint) were 66.1 mL/min/kg and 94.1 mL/min/kg, respectively.
